The values that follow come from US6489358B2, “Pharmaceutical compositions containing mupirocin” (Agis Industries (1983) Ltd., priority 2000, dated 2002).

Series [1] can be described thus: Solubility of 2% solutions (calculated as free acid) in pharmaceutically acceptable hydrophilic solvents. The format is physicochemical. An excerpt:
The following table presents the solubility of mupirocin calcium amorphous, compared to the solubility of the crystalline form, in various pharmaceutically acceptable hydrophilic solvents. We prepared 2% solutions (calculated as free acid), similar to the commercially available products.

Series [2] is described as follows: Stability of 2% solution on heating (Δ % impurities). The series is classed as physicochemical. The method, then:
The stability of Mupirocin Calcium amorphous in various acceptable pharmaceutical solvents was tested by heating a 2% solution to 80° C. for 24 hours or by heating it to 40° for 1 month. Bactroban cream was used as a reference.

For series [3] the following is noted: from U.S Pat. No. 4,916,155; cited from earlier work.
Setting [4] is: 2% solution (calculated as free acid) in Glycerine.
Where [5] appears, read: 2% solution (calculated as free acid) in Hexylene glycol.
[6] abbreviates: 2% solution in Propylene Glycol.

Regarding `C/C(=C\C(=O)OCCCCCCCCC(=O)[O-])C[C@@H]1OC[C@H](C[C@@H]2O[C@H]2[C@@H](C)[C@H](C)O)[C@@H](O)[C@H]1O.C/C(=C\C(=O)OCCCCCCCCC(=O)[O-])C[C@@H]1OC[C@H](C[C@@H]2O[C@H]2[C@@H](C)[C@H](C)O)[C@@H](O)[C@H]1O.O.O.[Ca+2]` [Mupirocin Ca amorphous, amorphous calcium mupirocin], in series [1] (setting [4]), the “Solubility (After heating for 30 min. at 70° C.)” value is reported as “Soluble”. The “Solubility (at room temperature)” value in series [1] (setting [4]) is listed as “Not soluble”; in series [1] (setting [5]), “Soluble”. Also, in series [1] (hydrophilic solvents), the “Solubility in hydrophilic solvents compared with the crystalline form” value is “much more soluble in hydrophilic solvents”. The “Δ % impurities (after heating for 1 month at 40° C.)” value amounted to 29.2% in series [2] (2% solution in Glycerine), 1.5% in series [2] (2% solution in Hexylene Glycol), 7.5% in series [2] (setting [6]) and 36.7% in series [2] (2% solution in Water). Besides, the “Δ % impurities (after heating for 24 h at 80° C.)” value in series [2] (2% solution in Glycerine) is on record as 29.4%; in series [2] (2% solution in Hexylene Glycol), 2%; in series [2] (setting [6]), 8.7%; in series [2] (2% solution in Water), 36.4%. Also, the “Stability of the solution” value in series [2] (solution in hexylene glycol) is reported as “good stability”.
Consider `C/C(=C\C(=O)OCCCCCCCCC(=O)[O-])C[C@@H]1OC[C@H](C[C@@H]2O[C@H]2[C@@H](C)[C@H](C)O)[C@@H](O)[C@H]1O.C/C(=C\C(=O)OCCCCCCCCC(=O)[O-])C[C@@H]1OC[C@H](C[C@@H]2O[C@H]2[C@@H](C)[C@H](C)O)[C@@H](O)[C@H]1O.O.O.[Ca+2]` [Mupirocin Ca crystalline, crystalline Mupirocin calcium dihydrate], for which, in series [3], the Solubility in water result was “poor solubility in water”. In addition, the “Solubility (After heating for 30 min. at 70° C.)” value in series [1] (2% solution (calculated as free acid) in Glycerine, calcium dihydrate) was “Partially soluble”; in series [1] (setting [5]), “Not soluble”; in series [1] (2% solution (calculated as free acid) in Water) it was “Not soluble”. Besides, the “Solubility (at room temperature)” value in series [1] (2% solution (calculated as free acid) in Hexylene glycol, calcium dihydrate) was “Not soluble”; in series [1] (2% solution (calculated as free acid) in Propylene glycol, calcium dihydrate), “Soluble”; in series [1] (2% solution (calculated as free acid) in Water, calcium dihydrate), “Not soluble”.
